From ChEMBL document CHEMBL1140489, “New biologically active epidioxysterols from Stereum hirsutum” (2007)
≈ marks a conversion by molar mass, not a printed value.

Key:
Assay type in all cases: functional
[1] = system: Staphylococcus aureus; experiment: Antibacterial activity against staphylococcus aureus ATCC 25923
[2] = system: Mycobacterium tuberculosis; experiment: Antibacterial activity against Mycobacterium tuberculosis H37Rv by microdilution resazurin assay
[3] = system: Escherichia coli; experiment: Antibacterial activity against Escherichia coli ATCC […]
[4] = system: Candida; experiment: Antifungal activity against Candida sp.
[5] = system: Pseudomonas aeruginosa; experiment: Antibacterial activity against Pseudomonas aeruginosa ATCC 27753

| Structure (SMILES) | MIC [1] [µg/mL] | MIC [2] [µg/mL] | MIC [3] [µg/mL] | MIC [4] [µg/mL] | MIC [5] [µg/mL] |
| --- | --- | --- | --- | --- | --- |
| CC(C)C/C=C/[C@@H](C)[C@H]1CC[C@@H]2[C@]1(C)CC=C1[C@]23C=C[C@]2(C[C@@H](O)CC[C@]12C)OO3 | > 512 | 16 (≈ 38.8 µM) | > 512 | > 512 | > 512 |
| Cn1c([N+](=O)[O-])cnc1C#Cc1ccnc(N)n1 | > 512 | 16 (≈ 65.5 µM) | > 512 | > 512 | > 512 |
| CC[C@@H](/C=C/[C@@H](C)[C@H]1CC[C@@H]2[C@]1(C)CC[C@H]1[C@]23C=C[C@]2(C[C@@H](O)CC[C@]12C)OO3)C(C)C | > 512 | 64 (≈ 145 µM) | > 512 | > 512 | > 512 |
| CC(C)[C@@H](C)/C=C/[C@@H](C)[C@H]1CC[C@@H]2[C@]1(C)CC=C1[C@]23C=C[C@]2(C[C@@H](O)CC[C@]12C)OO3 | > 512 | 16 (≈ 37.5 µM) | > 512 | > 512 | > 512 |
| O=C(O)c1cn(C2CC2)c2cc(N3CCNCC3)c(F)cc2c1=O [CIPROFLOXACIN] | 0.5 (≈ 1.51 µM) | 0.5 (≈ 1.51 µM) | – | – | 1 (≈ 3.02 µM) |
| CC(C)[C@@H](C)/C=C/[C@@H](C)[C@H]1CC[C@@H]2[C@]1(C)CC[C@H]1[C@]23C=C[C@]2(C[C@@H](O)CC[C@]12C)OO3 [ERGOSTEROL PEROXIDE] | > 512 | 64 (≈ 149 µM) | > 512 | > 512 | > 512 |
| Clc1ccc(COC(Cn2ccnc2)c2ccc(Cl)cc2Cl)c(Cl)c1 (centres undefined) [MICONAZOLE] | – | – | – | 0.25 (≈ 0.601 µM) | – |
